Data taken from ChEMBL document CHEMBL1201862, “PubChem BioAssay data set” (2004).
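Where inhibition never reached the appropriate level, the endpoint shown equals the highest concentration tested. Otherwise, values were interpolated linearly from a five-concentration, 48-hour dose response in 96-well plates. GI50: concentration for 50% inhibition of growth.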 Active and inactive are the calls of the source. Cut-off read from the data, not from the text of the source: active = GI50 up to about 1.1 µM and inactive = higher.

What was measured:
Experiment in all cases: inhibition of tumour cell growth, NCI panel, 48 h
[1] = system: ACHN
[2] = system: COLO 205
[3] = system: DMS-273
[4] = system: EKVX
[5] = system: HOP-62
[6] = system: HT-29
[7] = system: K562
[8] = system: KM-20L2
[9] = system: MDA-MB-231
[10] = system: NCI-H522
[11] = system: PC-3
[12] = system: SK-MEL-28
[13] = system: SK-OV-3
[14] = system: SN12C
[15] = system: SNB-78
[16] = system: T47D
[17] = system: U-251
[18] = system: UACC-62
[19] = system: XF498
[20] = system: DMS-114

Measured: GI50

CC1C(=O)C(C)C(c2ccccc2)N(N=O)C1c1ccccc1 (stereo unspecified)
inactive: [1] 143 µM | [2] > 553 µM | [3] > 798 µM | [4] > 100 µM | [5] 41.8 µM | [6] > 570 µM | [7] > 883 µM | [8] > 1000 µM | [9] 85.3 µM | [10] > 78.3 µM | [11] 152 µM | [12] > 409 µM | [13] 37.2 µM | [14] 400 µM | [15] > 47 µM | [16] 60.8 µM | [17] 60.1 µM | [18] > 475 µM | [19] 19.4 µM

NCc1c(C(N)=O)ncn1Cc1ccccc1
inactive: [1] > 100 µM | [2] > 100 µM | [20] > 100 µM | [3] > 100 µM | [4] > 100 µM | [5] > 100 µM | [6] > 100 µM | [7] > 100 µM | [8] > 100 µM | [12] > 100 µM | [13] > 100 µM | [14] > 100 µM | [15] > 100 µM | [17] > 100 µM | [18] > 100 µM | [19] > 100 µM

C[C@]12CCC3[C@@H](CC[C@@H]4c5nonc5CC[C@]34C)C1CCC(=O)N2 (stereo partly specified)
inactive: [1] > 100 µM | [2] > 100 µM | [3] > 100 µM | [4] 68.9 µM | [5] > 100 µM | [6] > 100 µM | [7] > 100 µM | [8] > 100 µM | [10] 56.1 µM | [12] > 100 µM | [13] > 100 µM | [14] > 100 µM | [15] > 100 µM | [17] > 100 µM | [18] > 100 µM | [19] > 100 µM

O=C(NN1C(=O)CS(=O)(=O)C1c1cccc(F)c1)c1ccncc1 (stereo unspecified)
inactive: [1] > 100 µM | [2] > 100 µM | [20] > 100 µM | [3] > 100 µM | [5] > 100 µM | [6] > 100 µM | [10] > 100 µM | [12] > 100 µM | [13] > 100 µM | [14] > 100 µM | [15] > 10 µM | [17] > 10 µM | [19] 82.6 µM

CCCCCCCCCCCCC/C=C1\C[C@H](O)COC1=O
inactive: [1] 15.9 µM | [3] 14.4 µM | [4] 17.5 µM | [5] 16.6 µM | [6] 15.7 µM | [7] 15.9 µM | [8] 16.9 µM | [10] 17.1 µM | [12] 16.2 µM | [13] 20.8 µM | [14] 14.9 µM | [15] 18.4 µM | [17] 17.7 µM | [18] 13.7 µM | [19] 16.3 µM

N#CC(/C(CCCC(=O)Nc1cccc([N+](=O)[O-])c1)=N\NC(=O)c1c(O)ccc2ccccc12)c1nc2ccccc2s1 (stereo unspecified)
inactive: [1] 20.7 µM | [2] 30.1 µM | [20] 12.6 µM | [3] 8.63 µM | [4] 35.4 µM | [5] 27.8 µM | [6] 37 µM | [7] 7.89 µM | [8] 27 µM | [10] 25.8 µM | [12] 21.5 µM | [13] 25.5 µM | [14] 25.6 µM | [15] 37.4 µM | [17] 16.3 µM | [19] 21.8 µM

[O-]/[N+](=C\c1ccccc1)[C@H](COCc1ccccc1)c1ccccc1
inactive: [1] 66.4 µM | [2] > 100 µM | [20] 54.1 µM | [3] 93.8 µM | [4] 25.1 µM | [5] > 100 µM | [6] 71 µM | [7] 48.9 µM | [8] > 100 µM | [10] 29.5 µM | [12] > 100 µM | [13] > 100 µM | [15] 66.5 µM | [17] 80.9 µM | [19] 27.8 µM

CC(=O)N(C)c1ccc2c(ccc[n+]2[O-])c1[N+](=O)[O-]
inactive: [1] > 100 µM | [2] > 100 µM | [20] > 100 µM | [3] > 100 µM | [4] > 100 µM | [5] > 100 µM | [6] > 100 µM | [7] > 100 µM | [8] > 100 µM | [12] > 100 µM | [14] > 100 µM | [15] > 100 µM | [17] > 100 µM | [18] > 100 µM | [19] > 100 µM

CCCCCCCCCCCCCCCCCC(=O)NCC(COP(=O)([O-])OCC[N+](C)(C)C)OC (stereo unspecified)
inactive: [1] 10.8 µM | [2] 1.48 µM | [20] 10.6 µM | [3] 1.58 µM | [4] 16.3 µM | [5] 2.87 µM | [6] 3.45 µM | [7] > 10 µM | [8] 2.23 µM | [12] 16.6 µM | [13] 15.2 µM | [14] 3.85 µM | [15] 4.3 µM | [17] 1.87 µM | [18] 4.53 µM | [19] 2.71 µM
